Laboratory results: ChEMBL document CHEMBL3046208, “Natural and synthetic podolactones with potential use as natural herbicide models” (2000)
Active and inactive are the calls of the source.

Key:
Format in all cases: functional
Hordeum vulgare [1] = test: Stimulation of root length of Hordeum vulgare (barley) at 0.1 mM after 5 days relative to untreated control
Triticum aestivum [2] = test: Stimulation of shoot length of Triticum aestivum (wheat) at 0.1 mM after 5 days relative to untreated control
Hordeum vulgare [3] = test: Stimulation of germination of Hordeum vulgare (barley) at 0.1 mM after 5 days relative to untreated control
Triticum aestivum [4] = test: Stimulation of root length of Triticum aestivum (wheat) at 0.1 mM after 5 days relative to untreated control
Triticum aestivum [5] = test: Stimulation of germination of Triticum aestivum (wheat) at 0.1 mM after 5 days relative to untreated control
Allium cepa [6] = test: Stimulation of root length of Allium cepa (onion) at 0.1 mM after 5 days relative to untreated control
Allium cepa [7] = test: Stimulation of shoot length of Allium cepa (onion) at 0.1 mM after 5 days relative to untreated control
Allium cepa [8] = test: Stimulation of germination of Allium cepa (onion) at 0.1 mM after 5 days relative to untreated control
Solanum lycopersicum [9] = test: Stimulation of shoot length of Solanum lycopersicum (tomato) at 0.1 mM after 5 days relative to untreated control
Solanum lycopersicum [10] = test: Stimulation of root length of Solanum lycopersicum (tomato) at 0.1 mM after 5 days relative to untreated control
Solanum lycopersicum [11] = test: Stimulation of germination of Solanum lycopersicum (tomato) at 0.1 mM after 5 days relative to untreated control
Lepidium sativum [12] = test: Stimulation of shoot length of Lepidium sativum at 0.1 mM after 5 days relative to untreated control
Lepidium sativum [13] = test: Stimulation of root length of Lepidium sativum at 0.1 mM after 5 days relative to untreated control
Lactuca sativa [14] = test: Stimulation of shoot length of Lactuca sativa cv. Roman (lettuce) at 0.1 mM after 5 days relative to untreated control
Lepidium sativum [15] = test: Stimulation of germination of Lepidium sativum at 0.1 mM after 5 days relative to untreated control
Lactuca sativa [16] = test: Stimulation of root length of Lactuca sativa cv. Roman (lettuce) at 0.1 mM after 5 days relative to untreated control
Lactuca sativa [17] = test: Stimulation of germination of Lactuca sativa cv. Roman (lettuce) at 0.1 mM after 5 days relative to untreated control
Lactuca sativa [18] = test: Stimulation of shoot length of Lactuca sativa cv. Nigra (lettuce) at 0.1 mM after 5 days relative to untreated control
Lactuca sativa [19] = test: Stimulation of root length of Lactuca sativa cv. Nigra (lettuce) at 0.1 mM after 5 days relative to untreated control
Lactuca sativa [20] = test: Stimulation of germination of Lactuca sativa cv. Nigra (lettuce) at 0.1 mM after 5 days relative to untreated control
Triticum aestivum [21] = test: Inhibition of shoot length of Triticum aestivum (wheat) at 0.1 mM after 5 days relative to untreated control
Hordeum vulgare [22] = test: Inhibition of germination of Hordeum vulgare (barley) at 0.1 mM after 5 days relative to untreated control; conditions: 120 h
Hordeum vulgare [23] = test: Inhibition of root length of Hordeum vulgare (barley) at 0.1 mM after 5 days relative to untreated control; conditions: 120 h
Hordeum vulgare [24] = test: Stimulation of shoot length of Hordeum vulgare (barley) at 0.1 mM after 5 days relative to untreated control
Lactuca sativa [25] = test: Inhibition of germination of Lactuca sativa cv. Nigra (lettuce) at 0.1 mM after 5 days relative to untreated control; conditions: for inhibition at 100 µM: 120 h
Lactuca sativa [26] = test: Inhibition of root length of Lactuca sativa cv. Nigra (lettuce) at 0.1 mM after 5 days relative to untreated control; conditions: for inhibition at 100 µM: 120 h
Lactuca sativa [27] = test: Inhibition of shoot length of Lactuca sativa cv. Nigra (lettuce) at 0.1 mM after 5 days relative to untreated control; conditions: for inhibition at 100 µM: 120 h
Lactuca sativa [28] = test: Inhibition of germination of Lactuca sativa cv. Roman (lettuce) at 0.1 mM after 5 days relative to untreated control; conditions: 120 h
Lactuca sativa [29] = test: Inhibition of root length of Lactuca sativa cv. Roman (lettuce) at 0.1 mM after 5 days relative to untreated control
Lactuca sativa [30] = test: Inhibition of shoot length of Lactuca sativa cv. Roman (lettuce) at 0.1 mM after 5 days relative to untreated control; conditions: 120 h
Lepidium sativum [31] = test: Inhibition of germination of Lepidium sativum at 0.1 mM after 5 days relative to untreated control
Lepidium sativum [32] = test: Inhibition of root length of Lepidium sativum at 0.1 mM after 5 days relative to untreated control; conditions: for inhibition at 100 µM: 120 h
Lepidium sativum [33] = test: Inhibition of shoot length of Lepidium sativum at 0.1 mM after 5 days relative to untreated control; conditions: for inhibition at 100 µM: 120 h
Solanum lycopersicum [34] = test: Inhibition of germination of Solanum lycopersicum (tomato) at 0.1 mM after 5 days relative to untreated control; conditions: for inhibition at 100 µM: 120 h
Solanum lycopersicum [35] = test: Inhibition of root length of Solanum lycopersicum (tomato) at 0.1 mM after 5 days relative to untreated control; conditions: for inhibition at 100 µM: 120 h
Solanum lycopersicum [36] = test: Inhibition of shoot length of Solanum lycopersicum (tomato) at 0.1 mM after 5 days relative to untreated control; conditions: for inhibition at 100 µM: 120 h
Allium cepa [37] = test: Inhibition of germination of Allium cepa (onion) at 0.1 mM after 5 days relative to untreated control; conditions: 120 h
Allium cepa [38] = test: Inhibition of root length of Allium cepa (onion) at 0.1 mM after 5 days relative to untreated control; conditions: 120 h
Allium cepa [39] = test: Inhibition of shoot length of Allium cepa (onion) at 0.1 mM after 5 days relative to untreated control; conditions: 120 h
Triticum aestivum [40] = test: Inhibition of germination of Triticum aestivum (wheat) at 0.1 mM after 5 days relative to untreated control
Triticum aestivum [41] = test: Inhibition of root length of Triticum aestivum (wheat) at 0.1 mM after 5 days relative to untreated control; conditions: for inhibition at 100 µM: 120 h
Hordeum vulgare [42] = test: Inhibition of shoot length of Hordeum vulgare (barley) at 0.1 mM after 5 days relative to untreated control; conditions: for inhibition at 100 µM: 120 h

COC(=O)[C@@]1(C)CCC[C@]2(C)C3=CC(=O)OC[C@]34O[C@@H]4C[C@@H]12
inactive: Activity (Triticum aestivum [2]) | Activity (Triticum aestivum [5]) | Activity (Lepidium sativum [12]) | Activity (Lepidium sativum [13]) | Activity (Lepidium sativum [15]) | Activity (Lactuca sativa [16]) | Activity (Lactuca sativa [18]) | Activity (Lactuca sativa [19]) | Activity (Lactuca sativa [20]) | inhibition (Triticum aestivum [21]) | inhibition (Lactuca sativa [25]) | inhibition (Lactuca sativa [26]) | inhibition (Lactuca sativa [27]) | inhibition (Lactuca sativa [29]) | inhibition (Lepidium sativum [31]) | inhibition (Lepidium sativum [32]) | inhibition (Lepidium sativum [33]) | inhibition (Triticum aestivum [40])
<20%: Activity (Allium cepa [6]) | Activity (Allium cepa [7]) | Activity (Allium cepa [8]) | Activity (Solanum lycopersicum [10]) | Activity (Lactuca sativa [14]) | Activity (Lactuca sativa [17]) | Activity (Hordeum vulgare [24])
< 20%: inhibition at 100 µM (Lactuca sativa [28]) | inhibition at 100 µM (Lactuca sativa [30]) | inhibition at 100 µM (Solanum lycopersicum [35]) | inhibition at 100 µM (Allium cepa [37]) | inhibition at 100 µM (Allium cepa [38]) | inhibition at 100 µM (Allium cepa [39]) | inhibition at 100 µM (Hordeum vulgare [42])
20%: Activity (Hordeum vulgare [1]) | Activity (Hordeum vulgare [3]) | Activity (Triticum aestivum [4]) | Activity (Solanum lycopersicum [9]) | Activity (Solanum lycopersicum [11]) | inhibition at 100 µM (Hordeum vulgare [22]) | inhibition at 100 µM (Hordeum vulgare [23]) | inhibition at 100 µM (Solanum lycopersicum [34]) | inhibition at 100 µM (Solanum lycopersicum [36]) | inhibition at 100 µM (Triticum aestivum [41])

COC(=O)[C@@]1(C)CCC[C@]2(C)C3=CC(=O)OCC3=CC[C@@H]12
> 40%: inhibition at 100 µM (Hordeum vulgare [23])
20%: Activity (Hordeum vulgare [3]) | Activity (Allium cepa [6]) | Activity (Allium cepa [7]) | Activity (Lepidium sativum [12]) | Activity (Lepidium sativum [13]) | Activity (Lactuca sativa [20]) | inhibition at 100 µM (Hordeum vulgare [22]) | inhibition at 100 µM (Lactuca sativa [25]) | inhibition at 100 µM (Lepidium sativum [32]) | inhibition at 100 µM (Lepidium sativum [33]) | inhibition at 100 µM (Allium cepa [38]) | inhibition at 100 µM (Allium cepa [39])
inactive: Activity (Triticum aestivum [2]) | Activity (Triticum aestivum [4]) | Activity (Triticum aestivum [5]) | Activity (Solanum lycopersicum [9]) | Activity (Solanum lycopersicum [10]) | Activity (Solanum lycopersicum [11]) | Activity (Lepidium sativum [15]) | Activity (Lactuca sativa [16]) | inhibition (Triticum aestivum [21]) | Activity (Hordeum vulgare [24]) | inhibition (Lactuca sativa [29]) | inhibition (Lepidium sativum [31]) | inhibition (Solanum lycopersicum [34]) | inhibition (Solanum lycopersicum [35]) | inhibition (Solanum lycopersicum [36]) | inhibition (Triticum aestivum [40]) | inhibition (Triticum aestivum [41]) | inhibition (Hordeum vulgare [42])
< 20%: inhibition at 100 µM (Lactuca sativa [26]) | inhibition at 100 µM (Lactuca sativa [27]) | inhibition at 100 µM (Lactuca sativa [28]) | inhibition at 100 µM (Lactuca sativa [30]) | inhibition at 100 µM (Allium cepa [37])
>40%: Activity (Hordeum vulgare [1])
<20%: Activity (Allium cepa [8]) | Activity (Lactuca sativa [14]) | Activity (Lactuca sativa [17]) | Activity (Lactuca sativa [18]) | Activity (Lactuca sativa [19])

COc1nc(C)nc(NC(=O)NS(=O)(=O)c2ccccc2OCCCl)n1 [LOGRAN]
< 20%: inhibition at 100 µM (Lepidium sativum [33])
> 40%: inhibition at 100 µM (Hordeum vulgare [22]) | inhibition at 100 µM (Hordeum vulgare [23]) | inhibition at 100 µM (Lactuca sativa [25]) | inhibition at 100 µM (Lactuca sativa [26]) | inhibition at 100 µM (Lactuca sativa [27]) | inhibition at 100 µM (Lactuca sativa [28]) | inhibition at 100 µM (Lactuca sativa [29]; 120 h) | inhibition at 100 µM (Lactuca sativa [30]) | inhibition at 100 µM (Lepidium sativum [32]) | inhibition at 100 µM (Solanum lycopersicum [35]) | inhibition at 100 µM (Solanum lycopersicum [36]) | inhibition at 100 µM (Allium cepa [38]) | inhibition at 100 µM (Allium cepa [39]) | inhibition at 100 µM (Triticum aestivum [40]; 120 h)
20%: Activity (Triticum aestivum [2]) | Activity (Triticum aestivum [4]) | Activity (Allium cepa [8]) | Activity (Solanum lycopersicum [11]) | inhibition at 100 µM (Triticum aestivum [21]; 120 h) | Activity (Hordeum vulgare [24]) | inhibition at 100 µM (Solanum lycopersicum [34]) | inhibition at 100 µM (Allium cepa [37]) | inhibition at 100 µM (Triticum aestivum [41]) | inhibition at 100 µM (Hordeum vulgare [42])
inactive: Activity (Lepidium sativum [15]) | inhibition (Lepidium sativum [31])
>40%: Activity (Hordeum vulgare [1]) | Activity (Hordeum vulgare [3]) | Activity (Triticum aestivum [5]) | Activity (Allium cepa [6]) | Activity (Allium cepa [7]) | Activity (Solanum lycopersicum [9]) | Activity (Solanum lycopersicum [10]) | Activity (Lepidium sativum [13]) | Activity (Lactuca sativa [14]) | Activity (Lactuca sativa [16]) | Activity (Lactuca sativa [17]) | Activity (Lactuca sativa [18]) | Activity (Lactuca sativa [19]) | Activity (Lactuca sativa [20])
<20%: Activity (Lepidium sativum [12])
